Legend:
PANC-1 cells = assay: SRB assay, relative cell proliferation rate of PANC-1 cells; format: cell-based
Description: (§1) HeLa cells and PANC-1 cells were used as the cancer cells. Both these cells were obtained from ATCC. Further, NHDF cells obtained from Lonza Group Ltd. were used as control non-cancer cells. The culture mediums used were Dulbecco's Modified Eagle Medium (D-MEM, manufactured by FUJIFILM Wako Pure Chemical Corporation) to which 10% FBS had been added (hereinafter also referred to as the “normal medium”), a medium prepared by removing leucine from D-MEM and adding 10% FBS (hereinafter also referred to as the “Leu-removed medium”), and a medium prepared by removing valine from D-MEM and adding 10% FBS (hereinafter also referred to as the “Val-removed medium”).
(§2) The culture cells were inoculated into a 96-well culture plate at a concentration of 3×10^3 cells/well, and following adhesion, were cultured for 24, 48 or 72 hours in the normal medium, the Leu-removed medium or Val-removed medium, or a medium prepared by adding the fluorine-containing amino acid to the Leu-removed medium or Val-removed medium in an amount sufficient to achieve a final concentration of 0.8 mM. Following culturing, the cell proliferation rate was measured by SRB assay. As a control, the cell proliferation rate was measured in a similar manner for cells having a culture time of 0 hours.
(§3) The SRB assays were conducted in the following manner. Following cell culturing, the medium was removed, and 10% (wt/vol) of trichloroacetic acid was added to fix the cells. Subsequently, the fixed cells were washed three times with tap water, and then stained by adding a solution containing 0.4% (wt/vol) of sulforhodamine B dissolved in 1% acetic acid. Following subsequent washing three times with a 1% acetic acid solution, a 10 mM Tris solution was added, and the light absorbance at 540 nm was measured. The 540 nm absorbance value for each sample was used to indicate the cell quantity, and for each sample, the relative cell proliferation rate (%) at a culture time of X hours was determined using the formula below.
(§4) SRB assays were conducted in the same manner as Example 1 with the exceptions of using a medium prepared by removing glutamine from D-MEM and adding 10% FBS (hereinafter also referred to as the “Gln-removed medium”) as the culture medium instead of the Leu-removed medium, using monofluoroglutamine ((2S,4S)Gln(1F) or (2S,4R)Gln(1F)) as the fluorine-containing amino acid, and altering the amount of monofluoroglutamine added to the Gln-removed medium to an amount sufficient to achieve a final concentration of 4 mM.
(§5) SRB assays were conducted in the same manner as Example 1 with the exceptions of using the Gln-removed medium as the culture medium instead of the Leu-removed medium, using difluoroglutamine as the fluorine-containing amino acid, and altering the amount of difluoroglutamine added to the Gln-removed medium to an amount sufficient to achieve a final concentration of 4 mM.

HeLa cells [1] = assay: SRB assay, relative cell proliferation rate of HeLa cells; format: cell-based
Description: as §1, §2, §3, §4, §5

NHDF cells = assay: SRB assay, relative cell proliferation rate of NHDF cells (control non-cancer cells); format: cell-based
Description: as §1, §2, §3, §4

HeLa cells [2] = assay: Tumor volume of subcutaneously transplanted HeLa cells in SCID/SCID mice; format: in vivo
Procedure: First, 0.1 mL samples of an HeLa cell solution with a concentration of 1.0×10^7 cells/mL were transplanted beneath the skin of SCID/SCID (immunodeficient) mice. Starting 7 days after the HeLa cell transplantation, PBS (control group), leucine (5 mg/kg mouse bodyweight) or trifluoroleucine (5 mg/kg mouse bodyweight) was administered intraperitoneally every day for two weeks. The growth of the tumor tissue was observed over time from the time of HeLa transplantation, and the tumor volume (mm^3) was calculated. The tumor volume (mm^3) was calculated from the major diameter (mm) of the tumor tissue and the minor diameter (mm) of the tumor tissue using the formula shown below.
With the exceptions of using monofluoroisoleucine or 5-fluoro-5-methyl-norleucine (CAS RN: 1361228-49-0) instead of the trifluoroleucine, and starting the administration of the PBS, 5-fluoro-5-methyl-norleucine or monofluoroisoleucine 11 days after rather than 7 days after the HeLa cell transplantation, the same procedure as (1) above was used to measure the volume (mm^3) of the tumor formed by the subcutaneously transplanted HeLa cells over time.
(§6) First, 0.1 mL samples of an HeLa cell solution with a concentration of 1.0×10^7 cells/mL were transplanted beneath the skin of SCID/SCID (immunodeficient) mice. Starting 7 days after the HeLa cell transplantation, PBS (control group), glutamine (Gln) (5 mg/kg mouse bodyweight), (2S,4S)Gln(1F) (5 mg/kg mouse bodyweight) or (2S,4R)Gln(1F) (5 mg/kg mouse bodyweight) was administered intraperitoneally every day for two weeks. The growth of the tumor tissue was observed over time from the time of HeLa cell transplantation, and the tumor volume (mm^3) was calculated. The tumor volume (mm^3) was determined in the same manner as that described in Example 2.
as §6, with “mouse bodyweight), or di-F-Gln(F)” for “mouse bodyweight), (2S,4S)Gln(1F) (5 mg/kg mouse bodyweight) or (2S,4R)Gln(1F)”, “bodyweight), or di-F-Gln(F) (5 mg/kg” for “bodyweight) or (2S,4R)Gln(1F) (5 mg/kg”, “of HeLa transplantation, and” for “of HeLa cell transplantation, and”

[3] = Val-removed medium + 0.8 mM amino acid, culture time 24 h
[4] = Val-removed medium + 0.8 mM amino acid, culture time 48 h
[5] = Val-removed medium + 0.8 mM amino acid, culture time 72 h
[6] = Val-removed medium + 0.8 mM amino acid, culture time 72 h, listed as monofluorovaline
[7] = Val-removed medium + 0.8 mM amino acid, culture time 72 h, listed as hexafluorovaline
[8] = Gln-removed medium + 4 mM amino acid, culture time 24 h
[9] = Gln-removed medium + 4 mM amino acid, culture time 48 h
[10] = Gln-removed medium + 4 mM amino acid, culture time 72 h

Structure (SMILES): CC(C)(F)C(N)C(=O)O (racemic) [Val(1F), 3-fluoro-DL-valine]
- Relative cell proliferation rate of PANC-1 cells (PANC-1 cells; [3]): 88.8%
- Relative cell proliferation rate of PANC-1 cells (PANC-1 cells; [4]): 103.8%
- Relative cell proliferation rate of PANC-1 cells (PANC-1 cells; [5]): 105.1%
- Relative cell proliferation rate of PANC-1 cells (PANC-1 cells; [6]): about 100%
- Relative cell proliferation rate of HeLa cells (HeLa cells [1]; [3]): 72.83%
- Relative cell proliferation rate of HeLa cells (HeLa cells [1]; [4]): 118.0%
- Relative cell proliferation rate of HeLa cells (HeLa cells [1]; [5]): 273.6%
- Relative cell proliferation rate of NHDF cells (NHDF cells; [3]): 91.5%
- Relative cell proliferation rate of NHDF cells (NHDF cells; [4]): 70.4%
- Relative cell proliferation rate of NHDF cells (NHDF cells; [5]): 110.5%
- Relative cell proliferation rate of NHDF cells (NHDF cells; [6]): lower than the relative cell proliferation rate observed for the Val-removed medium

Structure (SMILES): NC(C(=O)O)C(C(F)(F)F)C(F)(F)F (racemic) [Val(6F), 4,4,4,4′,4′,4′-hexafluoro-DL-valine]
- Relative cell proliferation rate of PANC-1 cells (PANC-1 cells; [3]): 104.3%
- Relative cell proliferation rate of PANC-1 cells (PANC-1 cells; [4]): 133.4%
- Relative cell proliferation rate of PANC-1 cells (PANC-1 cells; [5]): 141.3%
- Relative cell proliferation rate of HeLa cells (HeLa cells [1]; [3]): 88.1%
- Relative cell proliferation rate of HeLa cells (HeLa cells [1]; [4]): 93.7%
- Relative cell proliferation rate of HeLa cells (HeLa cells [1]; [5]): 67.6%
- Relative cell proliferation rate of HeLa cells (HeLa cells [1]; [7]): less than 100%
- Relative cell proliferation rate of NHDF cells (NHDF cells; [3]): 109.8%
- Relative cell proliferation rate of NHDF cells (NHDF cells; [4]): 104.4%
- Relative cell proliferation rate of NHDF cells (NHDF cells; [5]): 125.2%
- Relative cell proliferation rate of NHDF cells (NHDF cells; [7]): lower than the relative cell proliferation rate observed for the Val-removed medium

Structure (SMILES): CC(C)(F)CC[C@H](N)C(=O)O [5F-NorLeu, 5-fluoro-5-methyl-norleucine]
- Tumor volume (HeLa cells [2]; administration intraperitoneally every day starting day 11, 11 days since HeLa cell transplantation): 230.6 mm^3
- Tumor volume (HeLa cells [2]; administration intraperitoneally every day starting day 11, 13 days since HeLa cell transplantation): 373.9 mm^3
- Tumor volume (HeLa cells [2]; administration intraperitoneally every day starting day 11, 15 days since HeLa cell transplantation): 684.9 mm^3
- Tumor volume (HeLa cells [2]; administration intraperitoneally every day starting day 11, 18 days since HeLa cell transplantation): 823.5 mm^3
- Tumor volume (HeLa cells [2]; administration intraperitoneally every day starting day 11, 20 days since HeLa cell transplantation): 1291.7 mm^3
- Tumor volume (HeLa cells [2]; administration intraperitoneally every day starting day 11, 22 days since HeLa cell transplantation): 1951.5 mm^3

Structure (SMILES): NC(=O)[C@H](F)C[C@H](N)C(=O)O [(2S,4R)-Gln(1F)]
- Relative cell proliferation rate of PANC-1 cells (PANC-1 cells; [8]): 65.0%
- Relative cell proliferation rate of PANC-1 cells (PANC-1 cells; [9]): 34.7%
- Relative cell proliferation rate of PANC-1 cells (PANC-1 cells; [10]): 25.7%
- Tumor volume (HeLa cells [2]; 5 mg/kg intraperitoneally every day for two weeks starting day 7, 7 days since HeLa cell transplantation): 74.6 mm^3
- Tumor volume (HeLa cells [2]; 5 mg/kg intraperitoneally every day for two weeks starting day 7, 9 days since HeLa cell transplantation): 101.6 mm^3
- Tumor volume (HeLa cells [2]; 5 mg/kg intraperitoneally every day for two weeks starting day 7, 11 days since HeLa cell transplantation): 147.2 mm^3
- Tumor volume (HeLa cells [2]; 5 mg/kg intraperitoneally every day for two weeks starting day 7, 14 days since HeLa cell transplantation): 219.1 mm^3
- Tumor volume (HeLa cells [2]; 5 mg/kg intraperitoneally every day for two weeks starting day 7, 16 days since HeLa cell transplantation): 287.0 mm^3
- Tumor volume (HeLa cells [2]; 5 mg/kg intraperitoneally every day for two weeks starting day 7, 18 days since HeLa cell transplantation): 307.7 mm^3
- Tumor volume (HeLa cells [2]; 5 mg/kg intraperitoneally every day for two weeks starting day 7, 21 days since HeLa cell transplantation): 431.4 mm^3
- Increase in the size of the tumor tissue compared with the control group (HeLa cells [2]; HeLa tumor-bearing SCID/SCID mice, 5 mg/kg intraperitoneally every day for two weeks, result in words): dramatically inhibited
- Relative cell proliferation rate of HeLa cells (HeLa cells [1]; [8]): 46.8%
- Relative cell proliferation rate of HeLa cells (HeLa cells [1]; [9]): 21.5%
- Relative cell proliferation rate of HeLa cells (HeLa cells [1]; [10]): 23.1%
- Relative cell proliferation rate of NHDF cells (NHDF cells; [8]): 132.5%
- Relative cell proliferation rate of NHDF cells (NHDF cells; [9]): 46.5%
- Relative cell proliferation rate of NHDF cells (NHDF cells; [10]): 26.3%

— patent US20250312303A1, “ANTICANCER AGENT” (AGC Inc., priority 2022, published 2025)
